Key:
Assay in all cases: KINOMEscan competition binding
Conditions in all cases: compound 10.0 µM
[1] = target: BTK (human) (UniProt Q06187)
[2] = target: MAP2K7 (human) (UniProt O14733)
[3] = target: CSNK1A1L (human) (UniProt Q8N752)
[4] = target: EPHA8 (human) (UniProt P29322)
[5] = target: CaMK1 (human) (UniProt Q14012)
[6] = system: EIF2AK4 KD2 (human), Q9P2K8 [S808G]
[7] = target: MAST1 (human) (UniProt Q9Y2H9)
[8] = target: LIMK2 (human) (UniProt P53671)
[9] = target: TYK2 JH1 catalytic (human) (UniProt P29597)
[10] = target: MAP3K4 (human) (UniProt Q9Y6R4)
[11] = target: LIMK1 (human) (UniProt P53667)
[12] = target: BRSK1 (human) (UniProt Q8TDC3)
[13] = target: GAK (human) (UniProt O14976)
[14] = target: CSNK1A1 (human) (UniProt P48729)
[15] = target: PIP4K2C (human) (UniProt Q8TBX8)
[16] = target: SRPK2 (human) (UniProt P78362)
[17] = target: CDC42BPA (human) (UniProt Q5VT25)
[18] = target: BLK (human) (UniProt P51451)
[19] = target: NTRK3 (human) (UniProt Q16288)
[20] = target: RPS6KA4 KD1 (human) (UniProt O75676)
[21] = target: HCK (human) (UniProt P08631)
[22] = target: CDK14 (human) (UniProt O94921)
[23] = target: MAP3K10 (human) (UniProt Q02779)
[24] = target: FGFR3 (human) (UniProt P22607)
[25] = target: TNK2 (human) (UniProt Q07912)
[26] = target: MARK3 (human) (UniProt P27448)
[27] = target: MAPK14 (human) (UniProt Q16539)
[28] = target: PHKG2 (human) (UniProt P15735)
[29] = target: DAPK3 (human) (UniProt O43293)
[30] = target: GRK7 (human) (UniProt Q8WTQ7)
[31] = target: CAMK2B (human) (UniProt Q13554)
[32] = target: PAK3 (human) (UniProt O75914)
[33] = target: MAP3K6 (human) (UniProt O95382)
[34] = target: PIM2 (human) (UniProt Q9P1W9)
[35] = target: MAPK3 (human) (UniProt P27361)
[36] = target: MAP4K1 (human) (UniProt Q92918)
[37] = target: MAP4K3 (human) (UniProt Q8IVH8)
[38] = target: SRPK1 (human) (UniProt Q96SB4)
[39] = target: SNRK (human) (UniProt Q9NRH2)
[40] = target: YES1 (human) (UniProt P07947)

SRPK2 (human), sequence (P78362 whole entry, looked up): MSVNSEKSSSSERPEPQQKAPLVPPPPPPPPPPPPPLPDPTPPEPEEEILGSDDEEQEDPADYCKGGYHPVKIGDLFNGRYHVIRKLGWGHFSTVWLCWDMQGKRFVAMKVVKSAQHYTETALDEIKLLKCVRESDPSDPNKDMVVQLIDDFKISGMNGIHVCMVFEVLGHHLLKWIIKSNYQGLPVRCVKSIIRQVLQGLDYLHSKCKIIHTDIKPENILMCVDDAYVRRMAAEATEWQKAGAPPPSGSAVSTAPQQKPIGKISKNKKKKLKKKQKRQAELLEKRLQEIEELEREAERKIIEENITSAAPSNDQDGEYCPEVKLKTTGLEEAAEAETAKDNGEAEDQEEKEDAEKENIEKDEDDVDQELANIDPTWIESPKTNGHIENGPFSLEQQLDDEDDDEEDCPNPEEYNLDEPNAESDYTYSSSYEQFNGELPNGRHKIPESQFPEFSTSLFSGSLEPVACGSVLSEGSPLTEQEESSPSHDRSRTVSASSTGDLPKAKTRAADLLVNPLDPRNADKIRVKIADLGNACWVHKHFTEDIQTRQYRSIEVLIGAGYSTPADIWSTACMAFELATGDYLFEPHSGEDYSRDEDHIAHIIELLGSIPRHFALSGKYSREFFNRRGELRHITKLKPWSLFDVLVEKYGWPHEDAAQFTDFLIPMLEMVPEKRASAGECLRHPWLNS
MAP2K7 (human), sequence (O14733 whole entry, looked up): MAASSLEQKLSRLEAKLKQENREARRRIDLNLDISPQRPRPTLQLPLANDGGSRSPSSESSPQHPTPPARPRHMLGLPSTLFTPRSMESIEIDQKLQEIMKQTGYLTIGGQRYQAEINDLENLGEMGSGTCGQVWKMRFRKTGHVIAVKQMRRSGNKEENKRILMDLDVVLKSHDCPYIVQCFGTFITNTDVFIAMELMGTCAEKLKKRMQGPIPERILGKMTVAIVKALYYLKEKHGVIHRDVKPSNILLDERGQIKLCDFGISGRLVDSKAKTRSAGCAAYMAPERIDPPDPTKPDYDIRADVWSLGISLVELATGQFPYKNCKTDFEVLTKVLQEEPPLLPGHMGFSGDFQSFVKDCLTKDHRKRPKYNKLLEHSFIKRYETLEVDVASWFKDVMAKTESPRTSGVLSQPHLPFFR
GAK (human), sequence (O14976 whole entry, looked up): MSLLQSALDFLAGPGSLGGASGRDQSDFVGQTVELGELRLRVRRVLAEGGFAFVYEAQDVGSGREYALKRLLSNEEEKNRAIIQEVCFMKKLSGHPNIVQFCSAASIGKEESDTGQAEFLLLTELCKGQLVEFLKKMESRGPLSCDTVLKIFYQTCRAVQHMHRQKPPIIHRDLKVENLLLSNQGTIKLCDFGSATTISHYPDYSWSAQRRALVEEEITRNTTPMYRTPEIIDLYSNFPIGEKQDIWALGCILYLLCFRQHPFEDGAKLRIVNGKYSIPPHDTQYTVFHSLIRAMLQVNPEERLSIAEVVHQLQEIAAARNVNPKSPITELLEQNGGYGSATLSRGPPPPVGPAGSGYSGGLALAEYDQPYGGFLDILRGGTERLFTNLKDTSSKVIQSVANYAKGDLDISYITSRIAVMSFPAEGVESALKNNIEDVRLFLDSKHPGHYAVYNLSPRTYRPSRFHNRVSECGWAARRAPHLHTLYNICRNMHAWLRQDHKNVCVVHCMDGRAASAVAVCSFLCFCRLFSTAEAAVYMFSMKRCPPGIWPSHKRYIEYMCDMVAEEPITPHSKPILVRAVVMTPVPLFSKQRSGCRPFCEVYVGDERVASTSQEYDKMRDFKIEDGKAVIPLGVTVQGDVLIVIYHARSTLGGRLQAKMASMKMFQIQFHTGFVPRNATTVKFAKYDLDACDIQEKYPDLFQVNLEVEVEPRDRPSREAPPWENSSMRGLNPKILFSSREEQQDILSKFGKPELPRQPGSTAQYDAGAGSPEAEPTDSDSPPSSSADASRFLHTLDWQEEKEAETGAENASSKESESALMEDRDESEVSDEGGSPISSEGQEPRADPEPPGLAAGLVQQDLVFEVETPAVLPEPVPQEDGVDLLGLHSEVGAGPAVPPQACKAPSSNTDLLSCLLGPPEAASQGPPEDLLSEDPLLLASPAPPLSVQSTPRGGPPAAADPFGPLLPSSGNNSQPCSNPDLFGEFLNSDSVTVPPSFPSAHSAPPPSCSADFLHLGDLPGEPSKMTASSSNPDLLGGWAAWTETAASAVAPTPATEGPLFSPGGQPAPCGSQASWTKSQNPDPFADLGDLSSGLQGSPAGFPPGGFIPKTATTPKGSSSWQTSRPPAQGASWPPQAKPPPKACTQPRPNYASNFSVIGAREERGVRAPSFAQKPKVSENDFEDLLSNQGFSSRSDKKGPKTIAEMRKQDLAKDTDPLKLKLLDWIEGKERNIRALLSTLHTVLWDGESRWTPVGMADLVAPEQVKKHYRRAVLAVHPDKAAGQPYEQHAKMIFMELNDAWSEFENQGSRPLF
CDC42BPA (human), sequence (Q5VT25 whole entry, looked up): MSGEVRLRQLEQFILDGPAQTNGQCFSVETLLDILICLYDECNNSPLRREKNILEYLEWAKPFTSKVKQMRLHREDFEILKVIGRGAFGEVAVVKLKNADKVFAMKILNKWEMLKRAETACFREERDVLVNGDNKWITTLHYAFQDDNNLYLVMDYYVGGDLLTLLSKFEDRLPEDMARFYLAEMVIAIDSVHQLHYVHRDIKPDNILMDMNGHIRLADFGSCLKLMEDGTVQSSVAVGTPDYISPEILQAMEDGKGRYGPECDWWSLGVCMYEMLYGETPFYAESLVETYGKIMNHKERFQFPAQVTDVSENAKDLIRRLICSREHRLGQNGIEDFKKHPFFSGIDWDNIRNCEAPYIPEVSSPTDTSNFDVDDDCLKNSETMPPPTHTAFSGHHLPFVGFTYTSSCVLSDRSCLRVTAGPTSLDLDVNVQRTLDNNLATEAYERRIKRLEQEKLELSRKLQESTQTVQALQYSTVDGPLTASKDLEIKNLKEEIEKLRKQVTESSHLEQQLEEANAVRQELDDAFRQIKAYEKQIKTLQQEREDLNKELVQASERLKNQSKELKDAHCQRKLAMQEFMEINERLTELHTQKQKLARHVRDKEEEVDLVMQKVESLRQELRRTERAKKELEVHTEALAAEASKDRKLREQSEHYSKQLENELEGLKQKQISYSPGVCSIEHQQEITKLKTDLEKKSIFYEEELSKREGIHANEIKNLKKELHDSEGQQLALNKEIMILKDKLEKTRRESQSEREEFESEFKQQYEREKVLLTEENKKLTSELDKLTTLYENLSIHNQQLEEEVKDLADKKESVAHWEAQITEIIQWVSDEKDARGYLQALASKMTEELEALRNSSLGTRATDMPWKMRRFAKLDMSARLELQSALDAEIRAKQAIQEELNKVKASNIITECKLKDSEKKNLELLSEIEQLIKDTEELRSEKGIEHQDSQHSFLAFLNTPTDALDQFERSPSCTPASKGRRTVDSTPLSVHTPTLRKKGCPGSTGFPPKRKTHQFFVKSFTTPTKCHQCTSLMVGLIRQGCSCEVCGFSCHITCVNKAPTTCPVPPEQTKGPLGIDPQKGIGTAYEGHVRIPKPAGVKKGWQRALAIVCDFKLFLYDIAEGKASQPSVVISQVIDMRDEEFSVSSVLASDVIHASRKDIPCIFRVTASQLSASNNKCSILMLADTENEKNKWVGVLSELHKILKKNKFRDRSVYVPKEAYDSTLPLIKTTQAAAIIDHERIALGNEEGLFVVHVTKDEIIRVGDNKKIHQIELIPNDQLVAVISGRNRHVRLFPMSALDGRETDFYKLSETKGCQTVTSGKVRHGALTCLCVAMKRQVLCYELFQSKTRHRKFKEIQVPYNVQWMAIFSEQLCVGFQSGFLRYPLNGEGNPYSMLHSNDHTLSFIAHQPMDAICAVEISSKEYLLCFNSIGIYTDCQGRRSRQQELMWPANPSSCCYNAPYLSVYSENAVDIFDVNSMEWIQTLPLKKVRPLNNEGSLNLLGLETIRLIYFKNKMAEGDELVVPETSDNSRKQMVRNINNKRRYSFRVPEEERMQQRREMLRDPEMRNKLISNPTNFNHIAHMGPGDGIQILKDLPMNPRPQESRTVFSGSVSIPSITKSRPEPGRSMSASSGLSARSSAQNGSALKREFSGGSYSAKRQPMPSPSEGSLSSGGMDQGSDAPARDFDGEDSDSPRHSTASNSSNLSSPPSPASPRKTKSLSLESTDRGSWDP
BLK (human), sequence (P51451 whole entry, looked up): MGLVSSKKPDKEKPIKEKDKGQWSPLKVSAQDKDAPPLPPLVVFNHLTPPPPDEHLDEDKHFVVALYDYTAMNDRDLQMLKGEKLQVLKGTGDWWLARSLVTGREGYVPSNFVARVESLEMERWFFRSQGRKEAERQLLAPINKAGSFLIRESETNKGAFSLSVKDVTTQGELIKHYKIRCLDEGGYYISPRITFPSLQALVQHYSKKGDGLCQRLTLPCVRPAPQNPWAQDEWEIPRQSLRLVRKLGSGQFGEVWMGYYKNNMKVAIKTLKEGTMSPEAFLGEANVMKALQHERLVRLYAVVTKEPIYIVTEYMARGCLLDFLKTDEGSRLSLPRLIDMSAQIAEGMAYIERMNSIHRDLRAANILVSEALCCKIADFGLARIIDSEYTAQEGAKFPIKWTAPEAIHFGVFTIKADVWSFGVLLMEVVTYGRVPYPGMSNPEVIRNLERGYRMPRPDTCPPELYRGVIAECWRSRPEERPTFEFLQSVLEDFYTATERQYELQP
MAPK14 (human), sequence (Q16539 whole entry, looked up): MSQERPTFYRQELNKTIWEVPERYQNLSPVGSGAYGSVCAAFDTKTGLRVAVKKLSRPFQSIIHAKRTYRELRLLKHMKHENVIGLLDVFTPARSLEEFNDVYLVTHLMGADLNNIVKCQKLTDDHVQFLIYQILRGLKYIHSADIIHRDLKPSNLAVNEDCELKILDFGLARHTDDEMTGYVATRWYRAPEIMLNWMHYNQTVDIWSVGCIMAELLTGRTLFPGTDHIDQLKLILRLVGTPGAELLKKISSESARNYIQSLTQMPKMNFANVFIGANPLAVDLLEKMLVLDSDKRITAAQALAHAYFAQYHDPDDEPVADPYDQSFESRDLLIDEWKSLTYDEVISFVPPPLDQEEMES

| SMILES | kinase still bound, per cent of control [1] | kinase still bound, per cent of control [2] | kinase still bound, per cent of control [3] | kinase still bound, per cent of control [4] | kinase still bound, per cent of control [5] | kinase still bound, per cent of control [6] | kinase still bound, per cent of control [7] | kinase still bound, per cent of control [8] | kinase still bound, per cent of control [9] | kinase still bound, per cent of control [10] | kinase still bound, per cent of control [11] | kinase still bound, per cent of control [12] | kinase still bound, per cent of control [13] | kinase still bound, per cent of control [14] | kinase still bound, per cent of control [15] | kinase still bound, per cent of control [16] | kinase still bound, per cent of control [17] | kinase still bound, per cent of control [18] | kinase still bound, per cent of control [19] | kinase still bound, per cent of control [20] | further results |
| --- | --- | --- | --- | --- | --- | --- | --- | --- | --- | --- | --- | --- | --- | --- | --- | --- | --- | --- | --- | --- | --- |
| C[C@@H](Oc1cc(-n2cnc3ccc(CN4CCN(C)CC4)cc32)sc1C(N)=O)c1ccccc1C(F)(F)F | 100% | 80% | 84% | 90% | 90% | 29% | 3.1% | 100% | 81% | 100% | 100% | 42% | 100% | 91% | 62% | 59% | 95% | 100% | 100% | 68% | kinase still bound, per cent of control [21]: 100%; kinase still bound, per cent of control [22]: 94%; kinase still bound, per cent of control [23]: 92%; kinase still bound, per cent of control [24]: 80%; kinase still bound, per cent of control [25]: 100%; kinase still bound, per cent of control [26]: 63%; kinase still bound, per cent of control [27]: 100%; kinase still bound, per cent of control [28]: 43%; kinase still bound, per cent of control [29]: 15%; kinase still bound, per cent of control [30]: 33%; kinase still bound, per cent of control [31]: 19%; kinase still bound, per cent of control [32]: 96%; kinase still bound, per cent of control [33]: 75%; kinase still bound, per cent of control [34]: 77%; kinase still bound, per cent of control [35]: 100%; kinase still bound, per cent of control [36]: 83%; kinase still bound, per cent of control [37]: 59%; kinase still bound, per cent of control [38]: 46%; kinase still bound, per cent of control [39]: 100% |
| CCOc1cc2ncc(C#N)c(Nc3ccc(OCc4ccccn4)c(Cl)c3)c2cc1NC(=O)/C=C/CN(C)C | 4.4% | 49% | 98% | 78% | 88% | 1.4% | 100% | 100% | 100% | 4.8% | 100% | 95% | 10% | 100% | 100% | 85% | 91% | 3% | 78% | 100% | kinase still bound, per cent of control [40]: 26%; kinase still bound, per cent of control [21]: 35%; kinase still bound, per cent of control [22]: 97%; kinase still bound, per cent of control [23]: 88%; kinase still bound, per cent of control [24]: 98%; kinase still bound, per cent of control [25]: 40%; kinase still bound, per cent of control [27]: 91%; kinase still bound, per cent of control [28]: 92%; kinase still bound, per cent of control [29]: 91%; kinase still bound, per cent of control [30]: 100%; kinase still bound, per cent of control [31]: 100%; kinase still bound, per cent of control [32]: 100%; kinase still bound, per cent of control [33]: 87%; kinase still bound, per cent of control [34]: 100%; kinase still bound, per cent of control [35]: 100%; kinase still bound, per cent of control [36]: 45%; kinase still bound, per cent of control [37]: 2.1%; kinase still bound, per cent of control [38]: 100%; kinase still bound, per cent of control [39]: 51% |
| O=C(O)c1ccc(Nc2ncc3c(n2)-c2ccc(Cl)cc2C(c2c(F)cccc2F)=NC3)cc1 | 28% | 100% | 97% | 99% | 78% | 79% | 100% | 94% | 100% | 36% | 85% | 100% | 49% | 73% | 26% | 80% | 84% | 0.7% | 65% | 100% | kinase still bound, per cent of control [40]: 3.9%; kinase still bound, per cent of control [22]: 100%; kinase still bound, per cent of control [23]: 67%; kinase still bound, per cent of control [24]: 9%; kinase still bound, per cent of control [25]: 46%; kinase still bound, per cent of control [26]: 100%; kinase still bound, per cent of control [27]: 93%; kinase still bound, per cent of control [28]: 73%; kinase still bound, per cent of control [29]: 70%; kinase still bound, per cent of control [30]: 31%; kinase still bound, per cent of control [31]: 71%; kinase still bound, per cent of control [32]: 52%; kinase still bound, per cent of control [33]: 99%; kinase still bound, per cent of control [34]: 36%; kinase still bound, per cent of control [36]: 71%; kinase still bound, per cent of control [37]: 97%; kinase still bound, per cent of control [38]: 100%; kinase still bound, per cent of control [39]: 74% |
